# Measurements taken from patent publication EP1764363A2, “Substituted acetophenonederivatives” (Riemser Arzneimittel AG, priority 2005, dated 2007).
# Assays:
# SW620 = test: Chemosensitivity test (modified MTT test EZ4U); conditions: Homo sapiens, SW-620, 96 h, read-out: IC50-Werte
# Description: (§1) Die Verbindungen wurden in Dimethylsulfoxid (DMSO) als konzentrierte Stammlösungen (100-400fach) gelöst und für Proliferationstests in Zellkulturmedium verdünnt.
# (§2) Die Zellen wurden auf Verunreinigung durch Mycoplasmen untersucht. Das Medium wurde mit 10% hitzeinaktiviertem foetalem Kälberserum (Seromed) and 4 mM Glutamin ergänzt. Die Zellen wurden durch Trypsinierung subkultiviert (0.03% Trypsin enthaltend 0.02% EDTA, dreimal pro Woche). Die Trypsinierung wurde durch Verwendung vom komplettem Zellkulturmedium gestoppt. Die Zellzahl wurde unter Verwendung eines TOA Sysmex Microzellzählers (TOA, Tokyo, Japan) bestimmt.
# (§3) 10^4 Zellen/well wurden in Mikrotiterplatten mit 96 Vertiefungen (100 µl Medium) verteilt und die zu testenden Verbindungen wurden in einem weiteren Volumen von 100 µl hinzugegeben. Alle Verbindungen wurden entweder in 3 fixen Konzentrationen eingesetzt (für Tabellen 1-3) oder in 10 Stufen verdünnt unter Verwendung von Zweifachverdünnungsschritten zur Bestimmung der IC50-Werte (dreifache Ansätze, in den meisten Fällen vierfache Ansätze). Die Platten wurden, mit der Ausnahme der Tests zur Untersuchung des Zusammenhangs von Applikationsdauer und Zellreaktion, 4 Tage lang unter Zellkulturbedingungen inkubiert und die Zellviabilität wurde unter Verwendung eines modifizierten MTT Tests bestimmt (Formazan-Farbstoffbildung aus Tetrazoliumsalzen wie MTT, XTT, WST-1 und anderen durch das mitochondriale Reduktionsystem Succinattetrazolium Reductase EC 1.3.99.1.; EZ4U nichtradioaktiver Zellproliferations- und Cytotoxizitätstest, Biomedica, Wien, Österreich; Testmanual unter: www.bmgrp.com). Hierbei wurde die mitochondriale Aktivität und dadurch die Zellviabilität/Zellzahl bestimmt. Kurz gesagt wurde das gelieferte Substrat in einer Aktivatorlösung gelöst und 20 µl der Mischung wurden für 2 Stunden pro Vertiefung hinzugegeben (Gesamtvolumen 200 µl). Die optische Dichte wurde bei 450 nm unter Verwendung einer leeren Vertiefung als Referenz in einem Mikroplattenlesegerät (Eurogenetics, Brüssel, Belgien) bestimmt. Für jede Zell-Line wurden Vertiefungen verwendet um das MTT-Signal der Mediumkontrollen ohne Testsubstanzen zu bestimmen. Die Proliferation in den Test-Vertiefungen wurde in Bezug auf diese Kontrollwerte (100%) errechnet. Die Testergebnisse wurden zwischen 0,3 und 1,5 optischer Dichte für langsam bzw. schnellproliferierende Zellen erfasst. Diese Dosis-Wirkungs-Beziehungen wurden verwendet um die IC50 (Konzentration bei der das Wachstum um 50% gehemmt wird) unter Verwendung von PRISM Scientific Software (GraphPad Inc., San Diego, CA) zu berechnen.
# CRO2B = test: Chemosensitivity test (modified MTT test EZ4U); conditions: Homo sapiens, 96 h, read-out: IC50-Werte
# Description: as §1, §2, §3
# BxPC3 = test: Chemosensitivity test (modified MTT test EZ4U); conditions: Homo sapiens, BXPC-3, 96 h, read-out: IC50-Werte
# Excerpt: as §1
# (§4) Mit Ausnahme von SIM, KAL Ewingsarkom (in Wien etabliert) und LAN Neuroblastom (University of Los Angeles) wurden die Zell-Linien von der American Type Culture Collection (ATCC, Rockville, MD) bezogen und zum Erhalt von konfluenten Monolayerkulturen in RPMI-1640 Bikarbonatmedium (Seromed, Berlin, Deutschland) in einem Zellkulturschrank (5% CO2, 37°C) kultiviert. Mit der Ausnahme der murinen NlH3T3 Fibroblasten sind alle verwendeten Zell-Linien humanen Ursprungs. Die Zellen wurden auf Verunreinigung durch Mycoplasmen untersucht. Das Medium wurde mit 10% hitzeinaktiviertem foetalem Kälberserum (Seromed) and 4 mM Glutamin ergänzt. Die Zellen wurden durch Trypsinierung subkultiviert (0.03% Trypsin enthaltend 0.02% EDTA, dreimal pro Woche). Die Trypsinierung wurde durch Verwendung vom komplettem Zellkulturmedium gestoppt. Die Zellzahl wurde unter Verwendung eines TOA Sysmex Microzellzählers (TOA, Tokyo, Japan) bestimmt.
# (§5) 10^4 Zellen/well wurden in Mikrotiterplatten mit 96 Vertiefungen (100 µl Medium) verteilt und die zu testenden Verbindungen wurden in einem weiteren Volumen von 100 µl hinzugegeben. […]
# BT20 = test: Chemosensitivity test (modified MTT test EZ4U); conditions: Homo sapiens, BT-20, 96 h, read-out: IC50-Werte
# Excerpt: as §1, §4, §5
# MIAPaCa2 = test: Chemosensitivity test (modified MTT test EZ4U); conditions: Homo sapiens, MIA PaCa-2, 96 h, read-out: IC50-Werte
# Description: as §1, §2, §3
# CaCo-2 = test: Chemosensitivity test (modified MTT test EZ4U); conditions: Homo sapiens, Caco-2, 96 h, read-out: IC50-Werte
# Description: as §1, §2, §3
# DU 145 = test: Chemosensitivity test (modified MTT test EZ4U); conditions: Homo sapiens, DU-145, 96 h, read-out: IC50-Werte
# Excerpt: as §1, §4, §5
# MDA-MB435 = test: Chemosensitivity test (modified MTT test EZ4U); conditions: Homo sapiens, MDA-MB-435, 96 h, read-out: IC50-Werte
# Excerpt: as §1, §4, §5
# HT29 = test: Chemosensitivity test (modified MTT test EZ4U); conditions: Homo sapiens, HT-29, 96 h, read-out: IC50-Werte
# Excerpt: as §1, §4, §5
# WI38 = test: Chemosensitivity test (modified MTT test EZ4U); conditions: Homo sapiens, WI-38, 96 h, read-out: IC50-Werte
# Description: as §1, §2, §3
# T47D = test: Chemosensitivity test (modified MTT test EZ4U); conditions: Homo sapiens, T47D, 96 h, read-out: IC50-Werte
# Description: as §1, §2, §3
# Colo205 = test: Chemosensitivity test (modified MTT test EZ4U); conditions: Homo sapiens, COLO 205, 96 h, read-out: IC50-Werte
# Description: as §1, §2, §3
# [1] = tested on: Staphylococcus aureus (Stamm ATCC 6538); test: Mouse ear test (in vivo), antiseptic effect; set-up: key to Keimwachstum (grade): +++: totale Verhinderung des Keimwachstums; ++: Keimwachstum deutlich reduziert aber nicht völlig unterdrückt; conditions: mouse ears infected with S. aureus ATCC 6538; germ count vs infected untreated animal after 18 and 24 h
# S. epidermides = test: Minimal inhibitory concentration (MHK), microtitre plate, TTC staining; assay type: cell-based; conditions: 48h, 36°C
# Escherichia coli = test: as above; assay type: cell-based; conditions: 48h, 36°C
# Rhodococcus equi = test: as above; assay type: cell-based; conditions: 48h, 36°C
# Salmonella sp = test: as above; assay type: cell-based; conditions: 48h, 36°C
# Excerpt: Das Inokulum für die Tests wurde durch Verdünnung der Mikroorganismen in wässriger 0,85% NaCI-Lösung hergestellt, die Verdünnung auf die Stufe 0,5 nach McFarland eingestellt und die Konzentration spektrometrisch bei einer Wellenlänge von 580nm überprüft. Die Zellsuspensionen wurden zur Verwendung in den Tests auf 10^4 UFC/ml verdünnt. Die MHK-Tests erfolgten (Vorschrift nach J. N. P. Eloff, Planta Medica, Vol. 64, 1998, p 711-713) in Mikrotiterplatten mit 96 Vertiefungen. Serienverdünnungen der Konzentrationen lagen im Bereich 1,00 - 0,0015 mg/mL. Als Kontrollsubstanzen dienten Chloramphenicol bzw. Nistatin (Merck) in einer Konzentration von 0,062 - 0,005 mg/ml bzw. 0,0125 - 0,001 mg/ml. Das Inokulum (100 µl) wurde in alle Vertiefungen gegeben und die Platten für 48h bei 36°C inkubiert. Die antimikrobielle Aktivität wurde durch Zugabe von 20 µl einer 0,5% igen wässrigen Lösung von TTC (Tetrazoliumchlorid, Merck) pro Vertiefung detektiert. Die minimale Hemmkonzentration (MHK) wird als die niedrigste Konzentration der Verbindung definiert die das sichtbare Wachstum hemmt (durch TTC-Färbung indiziert).
# S. falcium = test: as above; assay type: cell-based; conditions: 48h, 36°C
# Bacillus subitilis = test: as above; assay type: cell-based; conditions: 48h, 36°C
# S. aureus = test: as above; assay type: cell-based; conditions: 48h, 36°C
# E. faecium = test: as above; assay type: cell-based; conditions: 48h, 36°C
# Micrococcus luteus = test: as above; assay type: cell-based; conditions: 48h, 36°C
# Candida albicans = test: as above; assay type: cell-based; conditions: 48h, 36°C
SMILES,MHK-Werte (S. epidermides),MHK-Werte (Escherichia coli),MHK-Werte (Rhodococcus equi),MHK-Werte (Salmonella sp),MHK-Werte (S. falcium),MHK-Werte (Bacillus subitilis),MHK-Werte (S. aureus),MHK-Werte (E. faecium),MHK-Werte (Micrococcus luteus),MHK-Werte (Candida albicans),also measured
"COc1cc(C2CC(=O)c3ccccc3O2)ccc1OCC=C(C)C (stereo not drawn) [Q25, 2-[3-Methoxy-4-(3-methylbut-2-enyloxy)phenyl]chroman-4-on]",–,–,–,–,–,–,–,–,–,–,IC50 (SW620): 84 µg/mL; IC50 (CRO2B): 6 µg/mL; IC50 (BxPC3): 80 µg/mL; IC50 (BT20): 45 µg/mL; IC50 (MIAPaCa2): 57 µg/mL; IC50 (CaCo-2): 18 µg/mL; IC50 (DU 145): 15 µg/mL; IC50 (MDA-MB435): 34 µg/mL; IC50 (HT29): 18 µg/mL; IC50 (WI38): 8.2 µg/mL; IC50 (T47D): 10 µg/mL; IC50 (Colo205): 75 µg/mL; Keimwachstum (grade) [1]: ++; Keimwachstum reduziert auf [1]: 30%
"O=C(N[C@H](CO)[C@H](O)c1ccc([N+](=O)[O-])cc1)C(Cl)Cl [Chloramphenicol, reference compound]","0,04 mg/ml","0,04 mg/ml","0,04 mg/ml","0,06 mg/ml","0,12 mg/ml","0,02 mg/ml","0,02 mg/ml","0,12 mg/ml","0,05 mg/ml",–,–
"CC(=C(C#N)C#N)c1ccc(O)cc1 [OK, 2-[1-(4-Hydroxyphenyl)ethyliden]malonitril]","0,03-0,06 mg/ml","0,5-1,0 mg/ml","0,5-1,0 mg/ml",–,"0,5-1,0 mg/ml","0,12-0,25 mg/ml","0,25-0,5 mg/ml","0,12-0,25 mg/ml","0,12-0,25 mg/ml","0,5-1,0 mg/ml",–
"CC(C)=CCOc1ccc(C(C)=C(C#N)C#N)cc1 [LPK1, 2-{1-[4-(3-Methylbut-2-enyloxy)phenyl]ethyiliden}-malononitril]","0,5-1,0 mg/ml","> 1,5 mg/ml","> 1,5 mg/ml","> 1,5 mg/ml","> 1,5 mg/ml","> 1,5 mg/ml","> 1,5 mg/ml","> 1,5 mg/ml","> 1,5 mg/ml","> 1,5 mg/ml",–
